In paper PMC2000878, “Module structure of interphotoreceptor retinoid-binding protein (IRBP) may provide bases for its complex role in the visual cycle – structure/function study of Xenopus IRBP” (BMC Biochemistry, 2007):
Read-outs that look alike come from different tables or passages of the source.

Tests used:
Assay in all cases: Competitive fluorescence titration of all-trans retinol with 11-cis retinaldehyde
Type in all cases: binding
Xenopus IRBP Module 1 = Xenopus IRBP Module 1 (Xenopus laevis, UniProt Q7SZI7); details: protein 0.99 μM
Xenopus IRBP Module 1, sequence (Q7SZI7 23-318): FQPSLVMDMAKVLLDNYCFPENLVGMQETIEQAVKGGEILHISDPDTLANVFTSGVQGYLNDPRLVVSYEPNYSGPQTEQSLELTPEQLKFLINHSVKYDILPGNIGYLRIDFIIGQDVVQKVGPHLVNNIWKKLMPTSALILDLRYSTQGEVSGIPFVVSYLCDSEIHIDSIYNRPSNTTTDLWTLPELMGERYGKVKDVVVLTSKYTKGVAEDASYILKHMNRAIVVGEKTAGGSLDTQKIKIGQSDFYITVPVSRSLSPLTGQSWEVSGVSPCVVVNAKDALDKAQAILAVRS
Description: (§1) Figure 9 Competitive inhibition by 11-cis retinaldehyde of all-trans retinol binding to the individual modules of Xenopus IRBP. Binding of all-trans retinol to the individual modules was measured by fluorescence enhancement in the presence of varying amounts of 11-cis retinal. Panels A through D correspond to modules 1 through 4 respectively. […] Three dimensional nonlinear regression was used to determine the number of binding sites, the dissociation constant of all-trans retinol, and the dissociation constant of 11-cis retinal for each of the individual modules. The concentrations of the proteins used in the titrations were as follows: module 1 (0.99 μM; panel A); module 2 (1.10 μM; panel B); module 3 (1.10 μM; panel C); module 4 (1.00 μM; panel D).
(§2) To describe the displacement of all-trans retinol by 11-cis retinaldehyde, Equation 1 was modified to take into account the competition between the two ligands. The apparent dissociation constants for all-trans retinol measured under these conditions is related to the dissociation constant of 11-cis retinaldehyde through the following expression.
(§3) Kapp=Kdall−trans[1+Rt11−cis/Kd11−cis] MathType@MTEF@5@5@+=feaafiart1ev1aaatCvAUfKttLearuWrP9MDH5MBPbIqV92AaeXatLxBI9gBaebbnrfifHhDYfgasaacH8akY=wiFfYdH8Gipec8Eeeu0xXdbba9frFj0=OqFfea0dXdd9vqai=hGuQ8kuc9pgc9s8qqaq=dirpe0xb9q8qiLsFr0=vr0=vr0dc8meaabaqaciaacaGaaeqabaqabeGadaaakeaacqWGlbWsdaWgaaWcbaGaemyyaeMaemiCaaNaemiCaahabeaakiabg2da9iabdUealnaaDaaaleaacqWGKbazaeaacqWGHbqycqWGSbaBcqWGSbaBcqGHsislcqWG0baDcqWGYbGCcqWGHbqycqWGUbGBcqWGZbWCaaGcdaWadaqaaiabigdaXiabgUcaRmaalaaabaGaemOuai1aa0baaSqaaiabdsha0bqaaiabigdaXiabigdaXiabgkHiTiabdogaJjabdMgaPjabdohaZbaaaOqaaiabdUealnaaDaaaleaacqWGKbazaeaacqaIXaqmcqaIXaqmcqGHsislcqWGJbWycqWGPbqAcqWGZbWCaaaaaaGccaGLBbGaayzxaaaaaa@58DE@
(§4) The origin of the above expression is discussed in reviews dealing with competition assays. Substitution of equation 2 into equation 1 yields the following expression.
(§5) Fenh=C1+C2[Rtall−trans−(Rtall−trans+NPt+Kdall−trans+Kdall−transRt11−cis/Kd11−cis)^2−4NPtRtall−trans] MathType@MTEF@5@5@+=feaafiart1ev1aaatCvAUfKttLearuWrP9MDH5MBPbIqV92AaeXatLxBI9gBaebbnrfifHhDYfgasaacH8akY=wiFfYdH8Gipec8Eeeu0xXdbba9frFj0=OqFfea0dXdd9vqai=hGuQ8kuc9pgc9s8qqaq=dirpe0xb9q8qiLsFr0=vr0=vr0dc8meaabaqaciaacaGaaeqabaqabeGadaaakeaacqWGgbGrdaWgaaWcbaGaemyzauMaemOBa4MaemiAaGgabeaakiabg2da9iabdoeadnaaBaaaleaacqaIXaqmaeqaaOGaey4kaSIaem4qam0aaSbaaSqaaiabikdaYaqabaGcdaWadaqaaiabdkfasnaaDaaaleaacqWG0baDaeaacqWGHbqycqWGSbaBcqWGSbaBcqGHsislcqWG0baDcqWGYbGCcqWGHbqycqWGUbGBcqWGZbWCaaGccqGHsisldaGcaaqaamaabmaabaGaemOuai1aa0baaSqaaiabdsha0bqaaiabdggaHjabdYgaSjabdYgaSjabgkHiTiabdsha0jabdkhaYjabdggaHjabd6gaUjabdohaZbaakiabgUcaRiabd6eaojabdcfaqnaaBaaaleaacqWG0baDaeqaaOGaey4kaSIaem4saS0aa0baaSqaaiabdsgaKbqaaiabdggaHjabdYgaSjabdYgaSjabgkHiTiabdsha0jabdkhaYjabdggaHjabd6gaUjabdohaZbaakiabgUcaRmaalaaabaGaem4saS0aa0baaSqaaiabdsgaKbqaaiabdggaHjabdYgaSjabdYgaSjabgkHiTiabdsha0jabdkhaYjabdggaHjabd6gaUjabdohaZbaakiabdkfasnaaDaaaleaacqWG0baDaeaacqaIXaqmcqaIXaqmcqGHsislcqWGJbWycqWGPbqAcqWGZbWCaaaakeaacqWGlbWsdaqhaaWcbaGaemizaqgabaGaeGymaeJaeGymaeJaeyOeI0Iaem4yamMaemyAaKMaem4CamhaaaaaaOGaayjkaiaawMcaamaaCaaaleqabaGaeGOmaidaaOGaeyOeI0IaeGinaqJaemOta4Kaemiuaa1aaSbaaSqaaiabdsha0bqabaGccqWGsbGudaqhaaWcbaGaemiDaqhabaGaemyyaeMaemiBaWMaemiBaWMaeyOeI0IaemiDaqNaemOCaiNaemyyaeMaemOBa4Maem4CamhaaaqabaaakiaawUfacaGLDbaaaaa@A768@

Xenopus IRBP Module 2 = biological target: T1, Xenopus IRBP Module 2 (Xenopus laevis, UniProt Q7SZI7)
T1 construct: cDNAs corresponding to the full-length IRBP, module 1, and module 2 were expressed in pThioHis; modules 3 and 4 were expressed in pTrxFus; made in house; host or cells: E. coli Top10 (pThioHis)
T1 sequence (Q7SZI7 319-617 limits assumed): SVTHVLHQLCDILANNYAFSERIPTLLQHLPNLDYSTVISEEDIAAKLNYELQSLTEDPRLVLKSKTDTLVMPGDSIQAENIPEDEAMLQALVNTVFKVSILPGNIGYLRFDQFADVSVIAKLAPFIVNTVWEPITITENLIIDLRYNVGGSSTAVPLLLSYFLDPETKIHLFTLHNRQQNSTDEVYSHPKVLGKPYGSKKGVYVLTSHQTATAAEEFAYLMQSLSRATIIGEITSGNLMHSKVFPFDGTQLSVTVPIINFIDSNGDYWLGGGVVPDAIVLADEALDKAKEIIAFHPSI
Description: as §1, §2, §3, §4, §5

Xenopus IRBP Module 3 = biological target: T2, Xenopus IRBP Module 3 (Xenopus laevis, UniProt Q7SZI7); details: protein 1.10 μM
T2 construct: cDNAs corresponding to the full-length IRBP, module 1, and module 2 were expressed in pThioHis; modules 3 and 4 were expressed in pTrxFus; made in house; host or cells: E. coli GI724 / GI698 (pTrxFus)
T2 sequence (Q7SZI7 616-912): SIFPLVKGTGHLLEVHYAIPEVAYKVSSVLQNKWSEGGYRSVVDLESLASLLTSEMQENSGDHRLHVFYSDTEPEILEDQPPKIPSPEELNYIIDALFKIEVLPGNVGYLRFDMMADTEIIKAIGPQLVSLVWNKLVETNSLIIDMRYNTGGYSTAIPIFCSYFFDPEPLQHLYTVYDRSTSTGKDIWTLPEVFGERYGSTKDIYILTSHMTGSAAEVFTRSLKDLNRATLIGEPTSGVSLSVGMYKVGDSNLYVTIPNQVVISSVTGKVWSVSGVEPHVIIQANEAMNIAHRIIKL
Description: as §1, §2, §3, §4, §5

Xenopus IRBP Module 4 = biological target: T3, Xenopus IRBP Module 4 (Xenopus laevis, UniProt Q7SZI7); details: protein 1.00 μM
T3 construct: cDNAs corresponding to the full-length IRBP, module 1, and module 2 were expressed in pThioHis; modules 3 and 4 were expressed in pTrxFus; made in house; host or cells: E. coli GI724 / GI698 (pTrxFus)
T3 sequence (Q7SZI7 923-1219): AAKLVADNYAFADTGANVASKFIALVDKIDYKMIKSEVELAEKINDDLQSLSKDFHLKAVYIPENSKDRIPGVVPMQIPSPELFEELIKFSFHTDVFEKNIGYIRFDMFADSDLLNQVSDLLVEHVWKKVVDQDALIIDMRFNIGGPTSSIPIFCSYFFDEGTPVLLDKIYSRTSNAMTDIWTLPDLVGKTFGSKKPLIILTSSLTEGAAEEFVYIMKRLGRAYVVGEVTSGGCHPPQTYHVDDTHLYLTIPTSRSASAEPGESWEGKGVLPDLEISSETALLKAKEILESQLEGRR
Description: as §1, §2, §3, §4, §5

[1] = competition with all-trans retinol, read-out: Kd 11-cis retinal
[2] = competition, in presence of 11-cis retinal, read-out: Kd All-trans retinol

SMILES	Kd (Xenopus IRBP Module 1; [1]) [nM]	Binding sites (N) (Xenopus IRBP Module 1; competition, shared sites)	Kd (Xenopus IRBP Module 2; competition with all-trans retinol, protein 1.10 μM, read-out: Kd 11-cis retinal) [nM]	Binding sites (N) (Xenopus IRBP Module 2; competition, shared sites, protein 1.10 μM)	Kd (Xenopus IRBP Module 3; [1]) [nM]	Binding sites (N) (Xenopus IRBP Module 3; competition, shared sites)	Kd (Xenopus IRBP Module 4; [1]) [nM]	Binding sites (N) (Xenopus IRBP Module 4; competition, shared sites)	Kd (Xenopus IRBP Module 1; [2]) [nM]	Ligand selectivity of module 2 (Xenopus IRBP Module 2; comparison of Kd for all-trans retinol and 11-cis retinaldehyde)	Kd (Xenopus IRBP Module 2; competition, in presence of 11-cis retinal, protein 1.10 μM, read-out: Kd All-trans retinol) [nM]	Kd (Xenopus IRBP Module 3; [2]) [nM]	Kd (Xenopus IRBP Module 4; [2]) [nM]
CC1=C(/C=C/C(C)=C/C=C/C(C)=C/C=O)C(C)(C)CCC1 [11-cis retinal]	570 ± 110	1.29 ± 0.24	280 ± 130	1.22 ± 0.10	560 ± 110	1.90 ± 0.28	290 ± 50	1.47 ± 0.18					
CC1=C(/C=C/C(C)=C/C=C/C(C)=C/CO)C(C)(C)CCC1 [all-trans retinol]									670 ± 170	selectivity for all-trans retinol over 11-cis retinaldehyde	74 ± 37	840 ± 220	410 ± 90
